Columns and labels:
Type in all cases: binding
Adenosine Kinase (mADK) [1] = target: T1, Adenosine Kinase (mADK) (Mus musculus, UniProt P55264); experiment: 2D […]-1H HSQC titration and 1D 1H STD NMR; parameters: gene Adk
Target sequence in this assay (P55264 whole entry): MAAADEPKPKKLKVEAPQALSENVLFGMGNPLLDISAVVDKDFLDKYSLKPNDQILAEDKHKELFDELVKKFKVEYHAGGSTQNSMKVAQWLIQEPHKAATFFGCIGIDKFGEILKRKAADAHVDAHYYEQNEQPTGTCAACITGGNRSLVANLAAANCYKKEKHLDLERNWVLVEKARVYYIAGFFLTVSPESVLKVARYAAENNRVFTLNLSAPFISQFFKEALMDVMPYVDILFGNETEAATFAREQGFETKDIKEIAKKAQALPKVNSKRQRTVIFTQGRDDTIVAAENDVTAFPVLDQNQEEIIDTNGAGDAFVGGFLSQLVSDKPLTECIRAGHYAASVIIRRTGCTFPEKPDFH

Adenosine Kinase (mADK) [2] = target: T2, Adenosine Kinase (mADK) (Mus musculus, UniProt P55264, D310P); experiment: 2D […]-1H HSQC titration and 1D 1H STD NMR (weaker than wild type)
T2 construct: gene Adk

Adenosine Kinase (mADK) [3] = target: T1, Adenosine Kinase (mADK); experiment: X-ray crystal structure, […] Å binary complex (also the […] Å ternary complex 5KB5); kinetics show competitive inhibition against ATP; parameters: gene Adk; Δ19mADK, Leu20 – Phe360 (binary complex); full-length mADK (ternary complex)
Target sequence in this assay (P55264 20-360): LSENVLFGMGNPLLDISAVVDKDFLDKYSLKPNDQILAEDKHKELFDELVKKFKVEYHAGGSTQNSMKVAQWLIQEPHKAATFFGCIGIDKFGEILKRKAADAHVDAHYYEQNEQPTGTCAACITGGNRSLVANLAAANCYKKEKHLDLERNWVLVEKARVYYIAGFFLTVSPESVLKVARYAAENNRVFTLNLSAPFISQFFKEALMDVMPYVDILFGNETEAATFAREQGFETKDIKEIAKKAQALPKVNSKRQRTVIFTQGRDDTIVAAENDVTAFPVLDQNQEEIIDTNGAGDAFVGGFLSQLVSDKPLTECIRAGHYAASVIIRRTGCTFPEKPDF

Adenosine Kinase (mADK) [4] = target: T1, Adenosine Kinase (mADK); experiment: X-ray crystal structure, […] Å ternary complex mADK:ADO:ADP; parameters: gene Adk; full-length mADK (Met1 to His362); model residues 20 to 360
Target sequence in this assay (P55264 whole entry): as the sequence (P55264 whole entry) above

T2 sequence (P55264 whole entry D310P): as the sequence (P55264 whole entry) above, with D310P counted along it

Nc1ncnc2c1ncn2[C@@H]1O[C@H](CO[P@](=O)(O)O[P@](=O)(O)O[P@@](=O)(O)S)[C@@H](O)[C@H]1O [ATPγS, adenosine triphosphate-gamma-S]
2D 15N-1H HSQC titration and 1D 1H STD NMR (Adenosine Kinase (mADK) [1]): ATPγS caused significant chemical shift changes in the wild-type mADK, especially in the residues around the BS1 site
2D 15N-1H HSQC titration and 1D 1H STD NMR (weaker than wild type) (Adenosine Kinase (mADK) [2]): 1D ^1H STD NMR indicate that the D310P mutant has an unfavorable interaction with ATPγS relative to the wild-type mADK

Nc1ncnc2c1ncn2[C@@H]1O[C@H](CO)[C@@H](O)[C@H]1O [ADO, adenosine]
X-ray crystal structure, 1.2 Å binary complex (also the 1.8 Å ternary complex 5K) (Adenosine Kinase (mADK) [3]): In the mADK:ADO complex, electronic density for ADO was identified in the BS1 site

Nc1ncnc2c1ncn2[C@@H]1O[C@H](COP(=O)(O)OP(=O)(O)O)[C@@H](O)[C@H]1O [ADP, adenosine-5′-diphosphate]
X-ray crystal structure, 1.8 Å ternary complex mADK:ADO:ADP (Adenosine Kinase (mADK) [4]): In this complex, ADP occupies BS1.

Reference: article PMC6086891, “Adenosine Kinase couples sensing of cellular potassium depletion to purine metabolism” (Scientific Reports, 2018)
